This passage reports inhibition and IC50 results from patent US10947241B2, “Phenyl phthalazine derivative, method for the preparation thereof, and pharmaceutical composition comprising the same” (Seoul National University Hospital, priority 2016, dated 2021).

One may read the inhibition as the percentage by which the read-out fell short of the control. Lower therefore signals a weak effect. By IC50 is commonly meant the concentration at which inhibition is half-maximal.

The target in this test is hResistin (Homo sapiens (Human), UniProt Q9HD89). The test is described as follows: Evaluation of the ability to inhibit TNF-α secretion by hResistin (THP-1 cells, ELISA). The format is cell-based. To be noted: for inhibition at 5 µM: inhibition of TNF-α secretion by hResistin in THP-1 cells; for IC50: THP-1 human monocyte cell line, human recombinant Resistin. As to the method:
Experimental Example: Evaluation of the Ability to Inhibit TNF-α Secretion by hResistin
Using THP-1 (human monocyte) cell line and ELISA system, the abilities to inhibit TNF-α secretion by hResistin (IC50) were evaluated for the compounds prepared in the above examples. The compounds target hResistin, and the abilities of the compounds to inhibit TNF-α secretion by human recombinant Resistin in human monocyte (THP-1) were evaluated. The abilities to inhibit TNF-α secretion were assessed by ELISA quantifying the amount of antibody with the enzyme as a marker using an antigen-antibody reaction.
Specifically, the cultured cells were spun down at 1,500 rpm for 2 minutes, the supernatant was removed and then the cells were re-suspended in 10 mL of complete RPMI-1640 medium. After counting the number of cells using Luna™ Automated Cell Counter, cells were plated into 96-well assay plates at 50 μL per well. The cells cultured for 24 hours were treated with the test substances in accordance with the concentration for 1 hour, and then the supernatant was collected and subjected to ELISA assay. In the ELISA assay, the absorbance at 450 nm (OD450 nm) was measured using Flexstation 3. The ability of each test substance to inhibit TNF-α secretion (IC50) and its inhibition at a concentration of 5 uM are shown in Table 1 below.

Where a name gives a salt, the structure may show the parent alone.

Chain of hResistin (Q9HD89 19-108): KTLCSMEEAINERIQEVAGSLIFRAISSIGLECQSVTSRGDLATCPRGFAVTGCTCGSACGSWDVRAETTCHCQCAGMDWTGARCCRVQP

As to `CC(C)(C)C(N)C(=O)N1CCN(c2nnc(-c3ccc(Cl)cc3)c3ccccc23)CC1` (centres unmarked) [Example 77, 2-amino-1-(4-(4-(4-chlorophenyl)phthalazin-1-yl)piperazin-1-yl)-3,3-dimethylbutan-1-one hydrochloride], at 5 µM the inhibition was 46.7%.

Turning to `O=C(C1CCCCN1)N1CCN(c2nnc(-c3ccc(Cl)cc3)c3ccccc23)CC1` (centres unmarked) [Example 78, (4-(4-(4-chlorophenyl)phthalazin-1-yl)piperazin-1-yl)(piperidin-2-yl)methanone hydrochloride], the inhibition at 5 µM was 81.3%.

In turn, `N[C@@H](COCc1ccccc1)C(=O)N1CCN(c2nnc(-c3ccc(Cl)cc3)c3ccccc23)CC1` [Example 79, (S)-2-amino-3-(benzyloxy)-1-(4-(4-(4-chlorophenyl)phthalazin-1-yl)piperazin-1-yl)propan-1-one hydrochloride] displayed an inhibition at 5 µM of 65.4%.

`N[C@H](C(=O)N1CCN(c2nnc(-c3ccc(Cl)cc3)c3ccccc23)CC1)c1ccccc1` [Example 80, (S)-2-amino-1-(4-(4-(4-chlorophenyl)phthalazin-1-yl)piperazin-1-yl)-2-phenylethanone hydrochloride] displayed an inhibition at 5 µM of 69.9%.

Compound `O=C1CN[C@H](C(=O)N2CCN(c3nnc(-c4ccc(Cl)cc4)c4ccccc34)CC2)CN1` [Example 81, (S)-5-(4-(4-(4-chlorophenyl)phthalazin-1-yl)piperazine-1-carbonyl)piperazin-2-one hydrochloride] returned an inhibition at 5 µM of 48.1%.

On to `CC(C)(C(=O)O)N1CCN(c2nnc(-c3ccc(Cl)cc3)c3ccccc23)CC1` [Example 82, 2-(4-(4-(4-chlorophenyl)phthalazin-1-yl)piperazin-1-yl)-2-methylpropanoic acid], for which the inhibition at 5 µM worked out at 50%.

Compound `NC(=O)CCC(N)C(=O)N1CCN(c2nnc(-c3ccc(Cl)cc3)c3ccccc23)CC1` (centres unmarked) [Example 84, 4-amino-5-(4-(4-(4-chlorophenyl)phthalazin-1-yl)piperazin-1-yl)-5-oxopentanamide hydrochloride] had an inhibition at 5 µM of 12.6%.

Turning to `NC(=O)CC(N)C(=O)N1CCN(c2nnc(-c3ccc(Cl)cc3)c3ccccc23)CC1` (centres unmarked) [Example 85, 3-amino-4-(4-(4-(4-chlorophenyl)phthalazin-1-yl)piperazin-1-yl)-4-oxobutanamide hydrochloride], the inhibition at 5 µM turned out to be 45.3% and the IC50 was found to be 5400 nM.

For `NC(CCC(=O)O)C(=O)N1CCN(c2nnc(-c3ccc(Cl)cc3)c3ccccc23)CC1` (centres unmarked) [Example 86, 4-amino-5-(4-(4-(4-chlorophenyl)phthalazin-1-yl)piperazin-1-yl)-5-oxopentanoic acid hydrochloride], the IC50 stood at 18000 nM.

In the case of `Clc1ccc(-c2nnc(N3CCC4CCNC4C3)c3ccccc23)cc1` (centres unmarked) [Example 87, 1-(4-chlorophenyl)-4-(tetrahydro-1H-pyrrolo[2,3-c]pyridin-6(2H,7H,7aH)-yl)phthalazine hydrochloride], the IC50 was 1700 nM.

With `Clc1ccc(-c2nnc(N3CC4CCNC4C3)c3ccccc23)cc1` (centres unmarked) [Example 88, 1-(4-chlorophenyl)-4-(hexahydropyrrolo[3,4-b]pyrrol-5(1H)-yl)phthalazine hydrochloride], the IC50 came to 900 nM.

Regarding `CNC1CCN(c2nnc(-c3ccc(Cl)cc3)c3ccc(Cl)cc23)C1` (centres unmarked) [Example 89, 1-(7-chloro-4-(4-chlorophenyl)phthalazin-1-yl)-N-methylpyrrolidin-3-amine hydrochloride], 5 µM produced 77.9% inhibition and the IC50 was 1800 nM.

Regarding `CNC1CCN(c2nnc(-c3ccc(Cl)cc3)c3cc(Cl)ccc23)C1` (centres unmarked) [Example 90, 1-(6-chloro-4-(4-chlorophenyl)phthalazin-1-yl)-N-methylpyrrolidin-3-amine hydrochloride], the inhibition at 5 µM was determined as 86.7% and the concentration for half-maximal inhibition (IC50) stood at 900 nM.

On to `CNC1CCN(c2nnc(-c3ccc(Cl)cc3)c3cc(F)ccc23)C1` (centres unmarked) [Example 91, 1-(4-(4-chlorophenyl)-6-fluorophthalazin-1-yl)-N-methylpyrrolidin-3-amine hydrochloride], for which 5 µM produced 76.6% inhibition and the half-maximal inhibitory concentration (IC50) worked out at 600 nM.

On to `CNC1CCN(c2nnc(Oc3ccc(Cl)cc3)c3ccccc23)C1` (centres unmarked) [Example 93, 1-(4-(4-chlorophenoxy)phthalazin-1-yl)-N-methylpyrrolidin-3-amine hydrochloride], for which at 5 µM the inhibition was 67.6% and the IC50 was 1900 nM.

`CC(C)(N)C(=O)N1CCN(c2nnc(Oc3ccc(Cl)cc3)c3ccccc23)CC1` [Example 94, 2-amino-1-(4-(4-(4-chlorophenoxy)phthalazin-1-yl)piperazin-1-yl)-2-methylpropan-1-one hydrochloride] returned an inhibition at 5 µM of 29.9%.

For the compound `Clc1ccc(-c2nnc(O[C@H]3CCNC3)c3ccccc23)cc1` [Example 95, (S)-1-(4-chlorophenyl)-4-(pyrrolidin-3-yloxy)phthalazine hydrochloride], testing at 5 µM gave an inhibition of 64% and the IC50 came out at 2300 nM.

In the case of `Clc1ccc(-c2nnc(OC3CCCNC3)c3ccccc23)cc1` (centres unmarked) [Example 96, 1-(4-chlorophenyl)-4-(piperidin-3-yloxy)phthalazine hydrochloride], at 5 µM the inhibition was 58.9%.

Compound `CNC1CCN(c2nnc(Nc3ccc(Cl)cc3)c3ccccc23)C1` (centres unmarked) [Example 97, N-(4-chlorophenyl)-4-(3-(methylamino)pyrrolidin-1-yl)phthalazin-1-amine] registered an inhibition at 5 µM of 26.9%.

As to `CNC1CCN(c2nnc(Cc3ccc(Cl)cc3)c3ccccc23)C1` (centres unmarked) [Example 98, 1-(4-(4-chlorobenzyl)phthalazin-1-yl)-N-methylpyrrolidin-3-amine hydrochloride], at 5 µM the inhibition was 3.9%.

In turn, `CC(C)(N)C(=O)N1CCN(c2nnc(-c3ccc(C(F)(F)F)cc3)c3ccccc23)CC1` [Example 102, 2-amino-2-methyl-1-(4-(4-(4-(trifluoromethyl)phenyl)phthalazin-1-yl)piperazin-1-yl)propan-1-one hydrochloride] registered an inhibition at 5 µM of 37%.

`CC(C)(N)C(=O)N1CCN(c2nnc(-c3ccc(OC(F)(F)F)cc3)c3ccccc23)CC1` [Example 103, 2-amino-2-methyl-1-(4-(4-(4-(trifluoromethoxy)phenyl)phthalazin-1-yl)piperazin-1-yl)propan-1-one hydrochloride] showed an inhibition at 5 µM of 32%.

The compound `CC(C)(N)C(=O)N1CCN(c2nnc(-c3ccc(CCC(=O)O)cc3)c3ccccc23)CC1` [Example 104, 3-(4-(4-(4-(2-amino-2-methylpropanoyl)piperazin-1-yl)phthalazin-1-yl)phenyl)propanoic acid hydrochloride] displayed an inhibition at 5 µM of 0.6%.
